{"source": "paper PMC3174134", "about": "“Lucanthone and Its Derivative Hycanthone Inhibit Apurinic Endonuclease-1 (APE1) by Direct Protein Binding” (PLoS ONE, 2011)", "target": "T1, APE1 mutant proteins (Homo sapiens, UniProt P27695, W280S)", "T1 construct": "made in house", "T1 sequence (P27695 2-318 W280S)": "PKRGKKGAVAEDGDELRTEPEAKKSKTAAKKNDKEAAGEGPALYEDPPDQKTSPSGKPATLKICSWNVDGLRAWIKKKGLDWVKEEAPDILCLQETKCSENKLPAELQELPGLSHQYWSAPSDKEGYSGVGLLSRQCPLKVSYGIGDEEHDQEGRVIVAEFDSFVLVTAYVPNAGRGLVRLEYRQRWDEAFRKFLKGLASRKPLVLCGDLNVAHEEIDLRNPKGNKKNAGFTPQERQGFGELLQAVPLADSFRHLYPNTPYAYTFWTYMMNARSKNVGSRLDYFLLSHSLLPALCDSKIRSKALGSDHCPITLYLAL", "test": "Cleavage of mutant APE1 proteins by lucanthone, Western blot", "settings": "100 µM lucanthone, 37°C, 2 h", "experimental": "Total purified protein concentration was determined by the ratio of A280/A260. 250 ng of APE1 treated with lucanthone or hycanthone (0.05–100 µM) for 2 h at 37°C in final volume of 30 µl were mixed with an equal volume of gel loading buffer (0.001% bromophenol blue, 4% SDS, 10% 2-ME, 20% glycerol, and 125 mM Tris pH 6.8) and denatured at 95°C for 5 min. Total protein concentration in cell extracts was determined using the Bradford assay (BioRad, Hercules, CA) and 25 µg of total protein from soluble or insoluble cell fractions were mixed with an equal volume of gel loading buffer (0.001% bromophenol blue, 4% SDS, 10% 2-ME, 20% glycerol, and 125 mM Tris pH 6.8) and denatured at 95°C for 5 min. This mixture was separated by SDS-PAGE (4% stacking, 7.5% resolving gel) for 2–3 h at 40 mA on a BioRad MiniPROTEAN II Electrophoresis Cell. To detect proteins, proteins were transferred onto a trans-Blot nitrocellulose membrane (0.45 µm; BioRad) overnight at 4°C at 15 mA in standard Tris-Glycine buffer containing 20% ethanol. […] Chemi-luminescence was developed using an ECL kit according to the manufacturer's instructions and detected by exposing the blot to HyperfilmECL for 30 s–3 min. […]"}
{"smiles": "CCN(CC)CCNc1ccc(C)c2sc3ccccc3c(=O)c12", "note": "[lucanthone, 1-[2-diethylaminoethylamino]-4-methylthioxanthen-9-one]", "values": [{"measurement": "Cleavage of W280S mutant", "result": "significant cleavage"}]}
